Reference: ChEMBL document CHEMBL4680188 (Eur J Med Chem, 2020)
Active and inactive are the calls of the source. No cut-off for these calls is given here.

Key:
[1] = biological target: T1, 5-hydroxytryptamine receptor 2C (Homo sapiens) (UniProt P28335); test: Binding affinity to human 5HT2C expressed in CHO cells; format: cell-based
T1 sequence (whole entry): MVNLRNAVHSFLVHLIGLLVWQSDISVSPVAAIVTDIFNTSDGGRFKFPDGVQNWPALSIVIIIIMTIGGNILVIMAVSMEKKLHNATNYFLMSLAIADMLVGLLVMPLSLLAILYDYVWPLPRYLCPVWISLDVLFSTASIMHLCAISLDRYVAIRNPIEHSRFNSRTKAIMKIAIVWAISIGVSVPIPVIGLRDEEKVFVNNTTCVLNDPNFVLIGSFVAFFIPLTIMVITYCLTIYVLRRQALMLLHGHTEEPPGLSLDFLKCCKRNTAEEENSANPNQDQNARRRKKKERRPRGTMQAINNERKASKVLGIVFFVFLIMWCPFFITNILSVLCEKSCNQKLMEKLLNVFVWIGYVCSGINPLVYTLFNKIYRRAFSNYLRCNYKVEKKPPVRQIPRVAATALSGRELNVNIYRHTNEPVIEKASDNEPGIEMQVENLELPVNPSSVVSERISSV

[2] = biological target: T2, Melatonin receptor type 1B (Homo sapiens, UniProt P49286); test: Displacement of 2-[125l]-lodomelatonin from human MT2 expressed in CHO cells incubated for 120 mins by radioligand binding assay; format: cell-based
T2 sequence (P49286 whole entry): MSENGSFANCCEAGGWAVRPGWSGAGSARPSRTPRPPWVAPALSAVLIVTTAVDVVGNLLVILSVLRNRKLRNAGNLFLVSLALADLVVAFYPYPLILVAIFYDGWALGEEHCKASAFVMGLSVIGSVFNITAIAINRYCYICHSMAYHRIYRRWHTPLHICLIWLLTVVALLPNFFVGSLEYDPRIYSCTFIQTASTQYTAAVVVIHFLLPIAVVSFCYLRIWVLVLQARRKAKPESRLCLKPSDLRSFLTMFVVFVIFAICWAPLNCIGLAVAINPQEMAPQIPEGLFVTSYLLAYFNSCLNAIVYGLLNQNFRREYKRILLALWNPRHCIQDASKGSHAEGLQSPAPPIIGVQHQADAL

[3] = biological target: T3, Melatonin receptor type 1A (Homo sapiens, UniProt P48039); test: Displacement of 2-[125l]-lodomelatonin from human MT1 expressed in CHO cells incubated for 120 mins by radioligand binding assay; format: cell-based
[4] = biological target: T2, Melatonin receptor type 1B; test: Agonist activity at human MT2 expressed in CHO cell membrane incubated for 1 hr by [35S]GTPgammaS binding assay; format: functional, cell membranes
[5] = biological target: T3, Melatonin receptor type 1A; test: Agonist activity at human MT1 expressed in CHO cell membrane incubated for 1 hr by [35S]GTPgammaS binding assay; format: functional, cell membranes
[6] = Oral bioavailability in human; format: ADME, organism-based; conditions: in vivo
[7] = Oral bioavailability in rat; format: ADME, organism-based; conditions: in vivo
[8] = Permeability in human Caco-2 cells; format: ADME, cell-based

T3 sequence (P48039 whole entry): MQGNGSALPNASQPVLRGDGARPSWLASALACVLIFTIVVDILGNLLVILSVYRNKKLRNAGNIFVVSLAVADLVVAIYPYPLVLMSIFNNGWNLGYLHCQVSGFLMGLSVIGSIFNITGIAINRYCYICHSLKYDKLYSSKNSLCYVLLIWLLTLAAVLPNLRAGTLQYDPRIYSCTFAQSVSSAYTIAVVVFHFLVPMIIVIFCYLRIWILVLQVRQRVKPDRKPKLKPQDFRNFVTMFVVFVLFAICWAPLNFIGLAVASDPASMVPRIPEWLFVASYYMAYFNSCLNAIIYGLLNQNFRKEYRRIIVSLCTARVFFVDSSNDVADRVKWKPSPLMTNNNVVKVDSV

Activity [1]	Ki [2]	Ki [3]	EC50 [4]	EC50 [5]	bioavailability [6]	bioavailability [7]	permeability [8]	SMILES
inactive	398 nM	549 nM						COc1ccc2ncnc(CCNC(=O)C3CC3)c2c1
inactive	> 10000 nM	> 10000 nM						COc1ccc2ncnc(NCCNC(C)=O)c2c1
inactive	41.1 nM	210 nM	238 nM	432 nM				CCC(=O)NCCc1ncnc2ccc(OC)cc12
inactive	46 nM	500 nM	543 nM	321 nM				COc1cccc(-c2nc(CCNC(C)=O)c3cc(OC)ccc3n2)c1
inactive	2800 nM	> 10000 nM						CCNC(=O)N1CCN(c2ncnc3ccc(OC)cc23)CC1
inactive	108 nM	1140 nM	89 nM	> 10000 nM	36%	33%	100%	CCCC(=O)NCCc1nncc2ccc(OC)cc12
inactive	799 nM	2110 nM	428 nM	> 10000 nM			2%	COc1ccc2cnnc(CCNC(C)=O)c2c1
inactive	41 nM	320 nM	219 nM	652 nM	36%	69%		CCCC(=O)NCCc1ncnc2ccc(OC)cc12
inactive	414 nM	1470 nM	327 nM	> 10000 nM	46%	54%	100%	CCC(=O)NCCc1nncc2ccc(OC)cc12
					11%	13%	100%	COc1ccc2cccc(CCNC(C)=O)c2c1 [AGOMELATINE]
inactive	15.6 nM	896 nM	237 nM	> 10000 nM	7%	2%	100%	COc1ccc2nc(-c3ccccc3)nc(CCNC(C)=O)c2c1
inactive	3300 nM	> 10000 nM						COc1ccc2ncnc(N3CCN(C(=O)C4CC4)CC3)c2c1
inactive	1370 nM	3020 nM	1250 nM	> 10000 nM				COc1ccc2cnnc(CCNC(=O)C3CC3)c2c1
inactive	115 nM	230 nM	835 nM	2600 nM	97%	92%	100%	COc1ccc2ncnc(CCNC(C)=O)c2c1
